In ChEMBL document CHEMBL1817617, “Novel macrocyclic C-aryl glucoside SGLT2 inhibitors as potential antidiabetic agents” (Bioorg Med Chem, 2011):

Tests used:
[1] = biological target: T1, Sodium/glucose cotransporter 2 (Homo sapiens, UniProt P31639); assay: Inhibition of human SGLT2 expressed in CHO cells assessed as reduction of [14C]-labeled AMG after 2 hrs by liquid scintillation counting; assay type: cell-based
T1 sequence (P31639 whole entry): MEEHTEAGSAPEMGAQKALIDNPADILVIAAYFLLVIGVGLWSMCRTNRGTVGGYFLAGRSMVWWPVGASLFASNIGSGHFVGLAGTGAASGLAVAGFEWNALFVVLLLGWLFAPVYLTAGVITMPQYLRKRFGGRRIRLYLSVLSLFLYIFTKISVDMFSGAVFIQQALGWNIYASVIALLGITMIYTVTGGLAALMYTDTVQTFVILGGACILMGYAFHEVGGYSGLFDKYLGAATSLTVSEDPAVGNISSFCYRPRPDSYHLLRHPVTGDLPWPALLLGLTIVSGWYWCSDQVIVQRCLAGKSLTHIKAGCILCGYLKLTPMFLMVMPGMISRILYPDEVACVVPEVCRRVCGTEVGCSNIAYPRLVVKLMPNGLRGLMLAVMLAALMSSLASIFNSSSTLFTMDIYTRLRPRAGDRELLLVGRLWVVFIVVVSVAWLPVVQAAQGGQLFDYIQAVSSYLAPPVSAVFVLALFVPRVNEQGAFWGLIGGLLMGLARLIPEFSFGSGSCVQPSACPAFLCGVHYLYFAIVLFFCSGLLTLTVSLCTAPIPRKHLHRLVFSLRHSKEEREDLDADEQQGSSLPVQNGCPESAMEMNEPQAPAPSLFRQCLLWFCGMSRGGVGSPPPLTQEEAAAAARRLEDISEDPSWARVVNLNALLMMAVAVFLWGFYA

[2] = test system: Rattus norvegicus; assay: Antidiabetic activity in Sprague-Dawley rat assessed as induction of urinary glucose excretion per 200 gram of body weight at 1 mg/kg, po; assay type: functional, Urine

| SMILES | IC50 [1] [nM] | Activity [2] [mg] |
| --- | --- | --- |
| CCOc1ccc(Cc2cc3c(cc2Cl)OCCOC[C@H]2O[C@@H]3[C@H](O)[C@@H](O)[C@@H]2O)cc1 | 1.34 |  |
| CCOc1ccc(Cc2cc3c(cc2Cl)OCCCOC[C@H]2O[C@@H]3[C@H](O)[C@@H](O)[C@@H]2O)cc1 | 2.95 |  |
| CCOc1ccc(Cc2cc3c(cc2Cl)OCCCCCOC[C@H]2O[C@@H]3[C@H](O)[C@@H](O)[C@@H]2O)cc1 |  | 226 |
| CCc1ccc(Cc2cc3c(cc2Cl)OCCCOC[C@H]2O[C@@H]3[C@H](O)[C@@H](O)[C@@H]2O)cc1 | 1.59 |  |
| CCc1ccc(Cc2cc3c(cc2Cl)OCCCCCOC[C@H]2O[C@@H]3[C@H](O)[C@@H](O)[C@@H]2O)cc1 |  | 116 |
| CCOc1ccc(Cc2cc([C@@H]3O[C@H](CO)[C@@H](O)[C@H](O)[C@H]3O)ccc2Cl)cc1 [DAPAGLIFLOZIN] |  | 1648 |
